Experiment [1] addresses T1, serotonin (5-HT) reuptake (Rattus norvegicus, UniProt P31652).
T1 construct: synaptosomes are freshly isolated from areas of the rat brain; from tissue; host or cells: rat brain synaptosomes (P2 fraction)
The experiment in a line: Inhibition of serotonin (5HT) reuptake in synaptosomes from rat brain. The note with it: test concentration of 10 μM; for inhibition at 10 µM: read-out: 5-HT (inhibition of reuptake of serotonin, % inhibition). In kind it is biochemical. The method, boiled down:
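Compounds screened at 10 μM and reported as percent inhibition of serotonin uptake. Uptake measured in a freshly prepared P2 synaptosomal fraction from rat brain.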

Experiment [2] concerns the target T2, bradykinin 1 receptor (B1R) of the rat (Rattus norvegicus, UniProt P97583).
T2 construct: expressed in transfected cells; host or cells: CHO K1 cells
T2 sequence (P97583 1-337): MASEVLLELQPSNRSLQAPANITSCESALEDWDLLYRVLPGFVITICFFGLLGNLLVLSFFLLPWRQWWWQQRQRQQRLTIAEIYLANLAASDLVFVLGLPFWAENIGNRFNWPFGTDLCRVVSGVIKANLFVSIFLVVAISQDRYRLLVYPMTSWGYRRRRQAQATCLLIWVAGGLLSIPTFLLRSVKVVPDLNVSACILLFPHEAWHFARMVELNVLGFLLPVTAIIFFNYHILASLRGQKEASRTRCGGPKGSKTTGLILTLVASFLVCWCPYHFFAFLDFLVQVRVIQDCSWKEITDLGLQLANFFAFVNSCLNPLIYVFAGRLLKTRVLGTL
Put plainly: Functional investigation on the rat bradykinin 1 receptor (B1R), Ca2+ FLIPR assay in CHO K1 rB1R cells. In kind it is cell-based. The note with it: test substance 10 μM, Ca2+ FLIPR, CHO K1 rB1R cells; for inhibition at 10 µM: CHO-K1, B1R antagonism rat, read-out: B1R Ant. r [10 μM] % Inhibition; for B1R Ant. r [10 μM] % Inhibition: B1R antagonism rat. The method, boiled down:
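Peak Ca2+-dependent fluorescence in B1R-transfected CHO K1 cells measures antagonism of an EC80 agonist challenge given 10-20 min after compound. Agonist is Lys-Des-Arg9-bradykinin for human, Des-Arg9-bradykinin for rat receptor.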

Results on 22 compounds are retold here after US8106055B2, “Substituted amide compounds” (Gruenenthal GmbH, priority 2007, dated 2012).

The structures appear in SMILES notation.

T1 sequence (P31652 whole entry): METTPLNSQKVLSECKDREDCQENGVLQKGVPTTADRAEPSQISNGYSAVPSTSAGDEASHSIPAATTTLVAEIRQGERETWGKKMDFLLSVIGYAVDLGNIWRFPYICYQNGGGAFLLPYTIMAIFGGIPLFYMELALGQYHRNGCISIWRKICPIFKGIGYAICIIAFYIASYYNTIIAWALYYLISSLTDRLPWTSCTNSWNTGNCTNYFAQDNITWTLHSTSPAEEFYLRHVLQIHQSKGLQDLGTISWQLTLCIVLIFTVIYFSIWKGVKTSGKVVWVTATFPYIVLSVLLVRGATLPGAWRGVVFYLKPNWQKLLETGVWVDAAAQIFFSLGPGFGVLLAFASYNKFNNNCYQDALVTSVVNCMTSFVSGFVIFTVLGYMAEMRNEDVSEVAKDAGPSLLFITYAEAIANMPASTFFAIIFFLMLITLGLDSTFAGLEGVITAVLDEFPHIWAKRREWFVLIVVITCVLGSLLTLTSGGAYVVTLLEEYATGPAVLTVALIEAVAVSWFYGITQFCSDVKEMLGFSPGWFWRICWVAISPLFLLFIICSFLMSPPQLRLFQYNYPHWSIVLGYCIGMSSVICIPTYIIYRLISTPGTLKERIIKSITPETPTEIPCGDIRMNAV

For `COc1ccc(S(=O)(=O)N(C)CCOCC(=O)NCCC2CCC(C(c3cccs3)N(C)C)CC2)cc1` (centres unmarked) [Example 128, N-(2-(4-((dimethylamino)(thiophen-2-yl)methyl)cyclohexyl)ethyl)-2-(2-(4-methoxy-N-methylphenylsulfonamido)ethoxy)acetamide], the inhibition at 10 µM was found to be 83% in experiment [1] and 46% in experiment [2].
In the same order, the values of `COc1cc(C)c(S(=O)(=O)N2CCC(CCOCC(=O)NCC3CCC(C(c4cccs4)N(C)C)CC3)CC2)c(C)c1C` (centres unmarked) [Example 131, N-((4-((dimethylamino)(thiophen-2-yl)methyl)cyclohexyl)methyl)-2-(2-(1-(4-methoxy-2,3,6-trimethylphenylsulfonyl)piperidin-4-yl)ethoxy)acetamide] are 91% and -20%.
`COc1cc(C)c(S(=O)(=O)N2CCC(OCC(=O)NCC3CCC(C(CCc4ccccc4)N(C)C)CC3)CC2)c(C)c1C` (centres unmarked) [Example 546]: in experiment [1], the “5-HT (inhibition of reuptake of serotonin, % inhibition)” value stood at 91%. For the same compound, in experiment [2], the “B1R Ant. r [10 μM] % Inhibition” value was 59%.
With `COc1ccc(S(=O)(=O)N2CCC(OCC(=O)NCC3CCC(C(CCc4ccccc4)N(C)C)CC3)C2)cc1OC` (centres unmarked) [Example 566], the “5-HT (inhibition of reuptake of serotonin, % inhibition)” value in experiment [1] stood at 87%. Moreover, the “B1R Ant. r [10 μM] % Inhibition” value in experiment [2] is recorded as 22%.
Taken in the same sequence, the figures for `COc1ccc(S(=O)(=O)N2CCCC2COCC(=O)NCC2CCC(C(CCc3ccccc3)N(C)C)CC2)cc1` (centres unmarked) [Example 572] were 93% and 62%.
For the compound `Cc1ccc(S(=O)(=O)N2CCC(OCC(=O)NCC3CCC(C(c4ccccc4)N(C)C)CC3)C2)cc1` (centres unmarked) [Example 125, N-((4-((dimethylamino)(phenyl)methyl)cyclohexyl)methyl)-2-(1-tosylpyrrolidin-3-yloxy)acetamide], the inhibition at 10 µM worked out at 91% in experiment [1] and 6% in experiment [2].
Take `COc1ccc(S(=O)(=O)N2CCCCC2COCC(=O)NCCC2CCC(C(c3cccs3)N(C)C)CC2)c(OC)c1` (centres unmarked) [Example 107, 2-((1-(2,4-dimethoxyphenylsulfonyl)piperidin-2-yl)methoxy)-N-(2-(4-((dimethylamino)(thiophen-2-yl)methyl)cyclohexyl)ethyl)acetamide]: the values for the inhibition at 10 µM in experiment [1] and in experiment [2] were 90% and 49%, respectively.
Turning to `COc1ccc(S(=O)(=O)N(C)CCOCC(=O)NCC2CCC(C(CCc3ccccc3)N(C)C)CC2)cc1OC` (centres unmarked) [Example 571], the “5-HT (inhibition of reuptake of serotonin, % inhibition)” value in experiment [1] was determined as 88%. The “B1R Ant. r [10 μM] % Inhibition” value in experiment [2] stood at 15%.
Regarding `CN(C)C(c1cccs1)C1CCC(CCNC(=O)COC2CCCN(S(=O)(=O)c3ccccc3)C2)CC1` (centres unmarked) [Example 100, N-(2-(4-((dimethylamino)(thiophen-2-yl)methyl)cyclohexyl)ethyl)-2-(1-(phenylsulfonyl)piperidin-3-yloxy)acetamide], the results for the inhibition at 10 µM in experiment [1] and in experiment [2] were 97% and 27%, respectively.
In the same order, the values of `COc1cc(C)c(S(=O)(=O)N2CCC(CCOCC(=O)NC3CCC(C(c4cccc(F)c4)N(C)C)CC3)CC2)c(C)c1C` (centres unmarked) [Example 118, N-(4-((dimethylamino)(3-fluorophenyl)methyl)cyclohexyl)-2-(2-(1-(4-methoxy-2,3,6-trimethylphenylsulfonyl)piperidin-4-yl)ethoxy)acetamide] are 92% and -4%.
In the same order, the values of `COc1cc(C)c(S(=O)(=O)N(C)CCOCC(=O)NC2CCC(C(c3cccs3)N(C)C)CC2)c(C)c1` (centres unmarked) [Example 111, N-(4-((dimethylamino)(thiophen-2-yl)methyl)cyclohexyl)-2-(2-(4-methoxy-N,2,6-trimethylphenylsulfonamido)ethoxy)acetamide] are 85% and 104%.
For the compound `COc1cc(C)c(S(=O)(=O)N2CCC(CCOCC(=O)NCCC3CCC(C(c4ccc(Cl)cc4)N(C)C)CC3)CC2)c(C)c1C` (centres unmarked) [Example 561], in experiment [1], the “5-HT (inhibition of reuptake of serotonin, % inhibition)” value stood at 79%. The “B1R Ant. r [10 μM] % Inhibition” value in experiment [2] is on record as −12%.
Take `CN(C)C(c1cccc(F)c1)C1CCC(CNC(=O)COCC2CCCN2S(=O)(=O)c2ccc(Cl)c(Cl)c2)CC1` (centres unmarked) [Example 119, 2-((1-(3,4-dichlorophenylsulfonyl)pyrrolidin-2-yl)methoxy)-N-((4-((dimethylamino)(3-fluorophenyl)methyl)cyclohexyl)methyl)acetamide]: the figures for the inhibition at 10 µM in experiment [1] and in experiment [2] were 96% and -6%, respectively.
As for `COc1ccc(S(=O)(=O)N(C)CCOCC(=O)NCC2CCC(C(CCc3ccccc3)N(C)C)CC2)cc1` (centres unmarked) [Example 550], the “5-HT (inhibition of reuptake of serotonin, % inhibition)” value in experiment [1] was 74%. Also, in experiment [2], the “B1R Ant. r [10 μM] % Inhibition” value was 50%.
In the case of `COc1cc(C)c(S(=O)(=O)N(CCOCC(=O)NCCC2CCC(C(c3ccc(F)cc3)N(C)C)CC2)Cc2ccccc2)c(C)c1C` (centres unmarked) [Example 554], the “5-HT (inhibition of reuptake of serotonin, % inhibition)” value in experiment [1] is listed as 92%. Besides, the “B1R Ant. r [10 μM] % Inhibition” value in experiment [2] is given as −11%.
As to `COc1ccc(S(=O)(=O)N(C)CCOCC(=O)NC2CCC(C(c3ccc(F)cc3)N(C)C)CC2)cc1OC` (centres unmarked) [Example 548], in experiment [1], the “5-HT (inhibition of reuptake of serotonin, % inhibition)” value is listed as 99%. For the same compound, in experiment [2], the “B1R Ant. r [10 μM] % Inhibition” value turned out to be 11%.
For `COc1cc(C)c(S(=O)(=O)N2CCC(OCC(=O)NC3CCC(C(c4cccs4)N(C)C)CC3)C2)c(C)c1` (centres unmarked) [Example 98, N-(4-((dimethylamino)(thiophen-2-yl)methyl)cyclohexyl)-2-(1-(4-methoxy-2,6-dimethylphenylsulfonyl)pyrrolidin-3-yloxy)acetamide], the inhibition at 10 µM was found to be 92% in experiment [1] and 69% in experiment [2].
`CN(C)C(c1cccs1)C1CCC(CCNC(=O)COCC2CCCN(S(=O)(=O)c3ccccc3)C2)CC1` (centres unmarked) [Example 115, N-(2-(4-((dimethylamino)(thiophen-2-yl)methyl)cyclohexyl)ethyl)-2-((1-(phenylsulfonyl)piperidin-3-yl)methoxy)acetamide]: the inhibition at 10 µM came to 97% in experiment [1] and 21% in experiment [2].
For the compound `CN(C)C(c1ccccc1)C1CCC(CNC(=O)COCCN(C)S(=O)(=O)c2ccc(Cl)cc2)CC1` (centres unmarked) [Example 110, 2-(2-(4-chloro-N-methylphenylsulfonamido)ethoxy)-N-((4-((dimethylamino) (phenyl)methyl)cyclohexyl)methyl)acetamide], the inhibition at 10 µM is 94% in experiment [1] and 10% in experiment [2].
Turning to `CN(C)C(CCc1ccccc1)C1CCC(CNC(=O)COCC2CCCN(S(=O)(=O)c3ccccc3)C2)CC1` (centres unmarked) [Example 544], in experiment [1], the “5-HT (inhibition of reuptake of serotonin, % inhibition)” value is given as 92%. Moreover, in experiment [2], the “B1R Ant. r [10 μM] % Inhibition” value was found to be 38%.
For `COc1cc(C)c(S(=O)(=O)N2CCCC(OCC(=O)NCCC3CCC(C(c4cccs4)N(C)C)CC3)C2)c(C)c1C` (centres unmarked) [Example 130, N-(2-(4-((dimethylamino)(thiophen-2-yl)methyl)cyclohexyl)ethyl)-2-(1-(4-methoxy-2,3,6-trimethylphenylsulfonyl)piperidin-3-yloxy)acetamide], the inhibition at 10 µM worked out at 95% in experiment [1] and 15% in experiment [2].
In the case of `COc1ccc(S(=O)(=O)N2CCCCC2COCC(=O)NCC2CCC(C(c3ccc(F)cc3)N(C)C)CC2)cc1OC` (single isomer, unassigned) [Example 537], the “5-HT (inhibition of reuptake of serotonin, % inhibition)” value in experiment [1] (10 µM) amounted to 92%. Further, the “B1R Ant. r [10 μM] % Inhibition” value in experiment [2] turned out to be 8%.
